{
  "source": "patent US12589090B2",
  "about": "“Compounds and methods for the treatment of degenerative disorders” (Aquilus Pharmaceuticals, Inc., priority 2019, dated 2026)",
  "experiment": "In-vivo oral rat pharmacokinetics (Example 15)",
  "settings": "male Sprague-Dawley rats, dose level 10 mg/kg, 0.5% MC, plasma, mean",
  "description": "Understanding the pharmacokinetics in species typically employed in preclinical animal testing is an essential component of drug discovery. […] Procedure: Six (6) male Sprague-Dawley rats were used. Fasting was conducted at least 16 hours prior to dose administration. Food was returned at approximately 4 hours post dose. The animals were placed into 2 groups of 3 animals per group. The oral (PO) formulation for Groups 1 & 2 were prepared on the day of dosing at a target concentration of 0.5 mg/mL in 0.5% Methylcellulose (400 cps) to produce a white, homogeneous suspension. Dosing was performed as outlined in Table 1:\nWhole blood samples (0.250 mL; K2EDTA anticoagulant) were collected from each animal through a jugular vein catheter. Whole blood samples were collected from all animals pre-dose, and at 0.25, 0.5, 1, 2, 4, 8, 16, and 24 hours after dose administration. All blood samples were immediately placed on ice until processing. Whole blood samples were centrifuged at 2200×g for 10 minutes in a refrigerated centrifuge (5±3° C.) to isolate plasma. The plasma samples were transferred to individual polypropylene vials and immediately placed on dry ice before storage at nominally −20±5° C. The plasma samples sometime later were then thawed and extracted and analyzed by high pressure liquid chromatography (HPLC) coupled to Mass Spectrometry (MS) (Table 2). Pharmacokinetic parameters (Table 3) were estimated using WinNonlin® pharmacokinetic software (Version No. 5.2.1) using a non-compartmental approach consistent with the PO route of administration.",
  "data": [
    {"smiles": "[2H]C([2H])([2H])c1ccc(C#Cc2ccc(S(=O)(=O)N[C@H](Cc3c[nH]c4ccccc34)C(=O)O)s2)cc1", "note": "[Compound 118, (R)-3-(1H-Indol-3-yl)-2-[5-(4-trideuteromethyl-phenylethynyl)-thiophene-2-sulfonylamino]-propionic acid-(D3, 98%)]", "values": [
      {"measurement": "AUC(0-inf)", "result": 7730, "unit": "ng·h/mL"},
      {"measurement": "AUC(0-t)", "result": 7680, "unit": "ng·h/mL"},
      {"measurement": "Cmax", "result": 2740, "unit": "ng/mL"},
      {"measurement": "half-life", "result": 1.47, "unit": "h"}
    ]}
  ]
}
